Tested on: not listed separately
Assay: Weight change of nude mice during anti-tumor (MCF-7) test (toxicity)
Type: in vivo
Conditions: 10 mg/kg PO, QD; nude mice
Protocol: (§1) As shown in FIGURE and the table below, 21 days after the nude mouse was administered with Tamoxifen (20 mg/kg), the weight dropped by 20%, and a higher dose of 30 mg/kg of an exemplary compound of the present application, shown below as CT-946-01, led to a weight gain of 7%.

| SMILES | BW (% of vehicle) |
| --- | --- |
| CC/C(=C(\c1ccc(O)cc1)c1ccc(OCCN2CCOCC2)nc1)c1ccccc1 [CT-946-01] | 104 % of vehicle |

Same assay, conditions: 20 mg/kg PO, QD; nude mice

| SMILES | BW (% of vehicle) |
| --- | --- |
| CC/C(=C(\c1ccccc1)c1ccc(OCCN(C)C)cc1)c1ccccc1 [Tamoxifen, reference compound] | 80.0 % of vehicle |

Same assay, conditions: 20 mg/kg; 21 days after administration; nude mouse

| SMILES | weight dropped [%] |
| --- | --- |
| CC/C(=C(\c1ccccc1)c1ccc(OCCN(C)C)cc1)c1ccccc1 [Tamoxifen, reference compound] | 20 |

Same assay, conditions: 30 mg/kg PO, QD; nude mice

| SMILES | BW (% of vehicle) |
| --- | --- |
| CC/C(=C(\c1ccc(O)cc1)c1ccc(OCCN2CCOCC2)nc1)c1ccccc1 [CT-946-01] | 107 % of vehicle |

Same assay, conditions: 30 mg/kg; 21 days after administration; nude mouse

| SMILES | weight gain [%] |
| --- | --- |
| CC/C(=C(\c1ccc(O)cc1)c1ccc(OCCN2CCOCC2)nc1)c1ccccc1 [CT-946-01] | 7 |

Tested on: MCF-7
Assay: Anti-tumor (MCF-7) test in nude mice
Type: in vivo
Conditions: 10 mg/kg PO, QD
Protocol: as §1

| SMILES | TGI (%) 21 days [%] |
| --- | --- |
| CC/C(=C(\c1ccc(O)cc1)c1ccc(OCCN2CCOCC2)nc1)c1ccccc1 [CT-946-01] | 108 |

Same assay, conditions: 20 mg/kg PO, QD

| SMILES | TGI (%) 21 days [%] |
| --- | --- |
| CC/C(=C(\c1ccccc1)c1ccc(OCCN(C)C)cc1)c1ccccc1 [Tamoxifen, reference compound] | 22.4 |

Same assay, conditions: 30 mg/kg PO, QD

| SMILES | TGI (%) 21 days [%] |
| --- | --- |
| CC/C(=C(\c1ccc(O)cc1)c1ccc(OCCN2CCOCC2)nc1)c1ccccc1 [CT-946-01] | 104 |

Tested on: MCF-7 cells
Assay: In vitro growth inhibitory potency of anti-estrogen activity in MCF-7 cells
Type: cell-based, human
Conditions: Homo sapiens, MCF7, 168 h; in the presence of E2, 7 days, Cell Titre Glo
Protocol: In Vitro Growth Inhibitory Potency of Anti-Estrogen Activity in MCF-7 Cells:
The estrogen receptor α (ERα) high expression human breast cancer MCF-7 cells (#HTB-22, A.T.C.C.) were cultured in DMEM medium supplemented by 10% fetal bovine serum (Gibco®) and 10 μg/ml bovine insulin (Sigma®). The cells were maintained in 75 cm^2 cell culture flask (Corning®) filled with 15 ml medium, 95% air and 5% CO2. Cells were split twice a week in a single layer cell culture.
For experiments related to 17β-Estradiol (E2), cells at logarithm growing stage were pretreated for two days without E2, the phenol red DMEM medium was replaced by the phenol red free DMEM/F12 medium, and FBS was replaced by 10% charcoal stripped FBS to remove the steroid and greatly decrease the hormone levels. Cells were seeded in 96 well cell culture plates (Corning®) with 4×10^3/well density, cultured in E2 free DMEM/F12 medium at 37° C. for 24 hours, 95% air and 5% CO2. All the compounds were stocked in DMSO as 0.01 M, serial diluted by the culture medium and added to the cells in the presence of proper E2 concentration. The final concentrations of compounds and DMSO were 3×10^−10˜1×10^−5 M and 0.1%. Cells were incubated at 37° C. for 7 days, medium containing E2 and compounds were changed every two days to maintain the chemical activity.
7 Days later, the viable cell numbers were calculated by the ATP amount from the luciferase quantity measurement (Cell Titre Glo® luciferase kit, Promega®). This method can be used to evaluate the stimulating estrogenicity of estrogen dependent cell growth under the condition of E2 free. The estrogenicity was tested by percentage compared to the maximum growth stimulation (100%) by E2. In this study, the percentage antagonist effects were evaluated by compared to the complete inhibition (100%) at the dose of 1×10^−5 M. The inhibition curves were generated by the reading numbers with the program Prism® 5, IC50 values were calculated.

| IC50 [nM] | SMILES |
| --- | --- |
| < 100 | CC/C(=C(\c1ccc(O)cc1)c1ccc(OCCNC)nc1)c1ccccc1 |
| < 100 | CC/C(=C(/c1ccc(O)cc1)c1ccc(OCCNC)nc1)c1ccccc1 |
| < 100 | CC/C(=C(\c1ccc(O)cc1)c1ccc(OCCN(C)C)nc1)c1ccccc1 |
| < 100 | CC/C(=C(\c1ccc(O)cc1)c1ccc(OC2CCNC2)nc1)c1ccccc1 (centres unmarked) |
| < 100 | CCC(=C(c1ccc(O)cc1)c1ccc(CCCN2CCCC2)nc1)c1ccccc1 |
| < 100 | CCC(=C(c1ccc(O)cc1)c1ccc(CCCN2CCCC2)cc1)c1ccccc1 |
| < 100 | CCC(=C(c1ccc(O)cc1)c1ccc(CCCNC)nc1)c1ccccc1 |
| < 100 | CCC(=C(c1ccc(O)cc1)c1ccc(CCCNC)cc1)c1ccccc1 |
| < 100 | CCC(=C(c1ccc(O)cc1)c1ccc(C#CCN2CCCC2)c(F)c1)c1ccccc1 |
| < 100 | CC/C(=C(\c1ccc(O)cc1)c1ccc(OCCNC)cc1)C1CCC(=O)CC1 |
| < 100 | CCC(=C(c1ccc(O)cc1)c1ccc(OCCNC)c(Br)c1)c1ccccc1 |
| < 100 | CC/C(=C(/c1ccc(O)cc1)c1ccc(N(C)CCNC)nc1)c1ccccc1 |
| < 100 | CCC(=C(c1ccc(O)cc1)c1ccc(O[C@@H]2CCNC2)cc1)c1ccccc1 |
| < 500 | CCC(=C(c1ccc(O)cc1)c1ccn(CCCN(C)C)c(=O)c1)c1ccccc1 |
| < 100 | CCC(=C(c1ccc(O)cc1)c1ccc(OCCNC)c(F)c1)c1ccccc1 |
| < 500 | CC/C(=C(/c1ccc(O)cc1)c1ccc(OCCNC)cc1)c1ccc(O)c(F)c1 |
| < 100 | CCC(=C(c1ccc(O)cc1)c1ccc(OCCNC)cc1)c1ccc2c(c1)CCO2 |
| < 100 | CCC(=C(c1ccc(O)cc1)c1ccc(OCCNC)cc1)c1ccc2nsnc2c1 |
| < 100 | CC/C(=C(/c1ccc(O)cc1)c1ccc(OCCNC)cc1)c1ccc2[nH]ncc2c1 |
| < 100 | CCC(=C(c1ccc(O)cc1)c1ccc(OCCNC)cc1)c1ccc2occc2c1 |
| < 500 | CC/C(=C(\c1ccc(OC)cc1)c1ccc(OCCNC)cc1)c1ccc2oc(Cl)cc2c1 |
| < 100 | CCC(=C(c1ccc(O)cc1)c1ccc(OCCN2CCCC2)cc1)c1ccc2oc(Cl)cc2c1 |
| < 100 | CCC(=C(c1ccc(O)cc1)c1ccc(OCCN2CCOCC2)cc1)c1ccc2oc(Cl)cc2c1 |
| < 100 | CCC(=C(c1ccc(O)cc1)c1ccc(OCCN(CC)CC)cc1)c1ccc2oc(Cl)cc2c1 |
| < 100 | CCC(=C(c1ccc(O)cc1)c1ccc(OCCN(C)C)cc1)c1ccc2oc(Cl)cc2c1 |
| < 100 | CCC(=C(c1ccc(O)cc1)c1ccc(OCCN2CCNCC2)cc1)c1ccc2oc(Cl)cc2c1 |
| < 100 | CCC(=C(c1ccc(O)cc1)c1ccc(SCCNC)nc1)c1ccc2oc(Cl)cc2c1 |
| < 100 | CCC(=C(c1ccc(O)cc1)c1ccc(CCCN2CCCC2)nc1)c1ccc2oc(Cl)cc2c1 |

| IC50 [nM] | SMILES |
| --- | --- |
| < 500 | CCC(=C(c1ccc(O)cc1)c1ccc(OCCN(C)C)cn1)c1ccccc1 |
| < 100 | CCC(=C(c1ccc(O)cc1)c1ccc(CCCN(C)C)nc1)c1ccccc1 |
| < 100 | CCC(=C(c1ccc(O)cc1)c1ccc(OCC2CCCN2C)cc1)c1ccccc1 (centres unmarked) |
| < 100 | CC/C(=C(\c1ccc(O)cc1)c1ccc(OCCN2CCCC2)nc1)c1ccccc1 |
| < 100 | CC/C(=C(\c1ccc(O)cc1)c1ccc(OCCN2CCN(C)CC2)nc1)c1ccccc1 |
| < 100 | CC/C(=C(\c1ccc(O)cc1)c1ccc(OCCN2CCCCC2)nc1)c1ccccc1 |
| < 100 | CCC(=C(c1ccc(O)cc1)c1ccc(OCCNC)cc1)c1ccsc1 |
| < 500 | CC/C(=C(/c1ccc(O)cc1)c1ccc(OCCNC)cc1)c1csc(Cl)c1 |
| < 500 | CCC(=C(c1ccc(O)cc1)c1ccc(OCCNC)cc1)C1CCC(O)CC1 (centres unmarked) |
| < 100 | CC/C(=C(\c1ccc(O)cc1)c1ccc(SCCNC)nc1)c1ccccc1 |
| < 100 | CCC(=C(c1ccc(O)cc1)c1ccc(OC[C@@H]2CCCN2)cc1)c1ccccc1 |
| < 100 | CCC(=C(c1ccc(O)cc1)c1ccc(OC2CCNC2)cc1)c1ccccc1 (centres unmarked) |
| < 500 | CCC(=C(c1ccc(O)cc1)c1ccc(OCCNC)cc1)c1ccc(O)c(OC)c1 |
| < 500 | CC/C(=C(\c1ccc(O)cc1)c1ccc(OCCNC)cc1)c1ccc(O)c(F)c1 |
| < 100 | CCC(=C(c1ccc(OCCNC)cc1)c1ccc(O)c(F)c1)c1ccccc1 |
| < 100 | CCC(=C(c1ccc(O)cc1)c1ccc(OCCNC)c(F)c1)c1ccc2c(c1)CCO2 |
| < 100 | CC/C(=C(\c1ccc(O)cc1)c1ccc(OCCNC)cc1)c1ccc2[nH]ncc2c1 |
| < 100 | CNCCOc1ccc(C(=C(CCCl)c2ccc3c(c2)CCO3)c2ccc(O)cc2)cc1 |
| < 100 | CC/C(=C(/c1ccc(O)cc1)c1ccc(OCCNC)cc1)c1ccc2oc(Cl)cc2c1 |
| < 100 | CCC(=C(c1ccc(O)cc1)c1ccc(OCCNC)nc1)c1ccc2c(c1)CCO2 |
| < 100 | CCC(=C(c1ccc(O)cc1)c1ccc(OCCN2CCCCC2)cc1)c1ccc2oc(Cl)cc2c1 |
| < 100 | CCC(=C(c1ccc(O)cc1)c1ccc(OCCN2CCN(C)CC2)cc1)c1ccc2oc(Cl)cc2c1 |
| < 100 | CCNCCOc1ccc(C(=C(CC)c2ccc3oc(Cl)cc3c2)c2ccc(O)cc2)cc1 |
| < 100 | CCC(=C(c1ccc(O)cc1)c1ccc(OCCN2CCCCCC2)cc1)c1ccc2oc(Cl)cc2c1 |
| < 100 | CCC(=C(c1ccc(O)cc1)c1ccc(OCCNC)nc1)c1ccc2oc(Cl)cc2c1 |
| < 100 | CCC(=C(c1ccc(O)cc1)c1ccc(N(C)CCNC)nc1)c1ccc2oc(Cl)cc2c1 |
| < 100 | CCC(=C(c1ccc(O)cc1)c1ccc(OCCNC)cc1)c1ccc2oc(Cl)cc2c1 [drawing 331] |

| SMILES | IC50 [nM] |
| --- | --- |
| CC/C(=C(\c1ccc(O)cc1)c1ccc(OCCN2CCOCC2)nc1)c1ccccc1 [drawing 318] | < 100 |

Same assay, conditions: in the presence of E2, 7 days, Cell Titre Glo

| IC50 [nM] | SMILES |
| --- | --- |
| < 100 | CCC(=C(c1ccc(O)cc1)c1ccc(OCCNC)cc1)c1ccc2oc(Cl)cc2c1 [drawing 303] |

From patent US9309211B2, “Arylalkene derivatives and use thereof as selective estrogen receptor modulators” (Centaurus BioPharma Co., Ltd., priority 2011, dated 2016)
